In ChEMBL document CHEMBL4011591, “Discovery and pharmacological evaluation of a novel series of adamantyl cyanoguanidines as P2X7 receptor antagonists” (Eur J Med Chem, 2017):

Tests used:
P2X purinoceptor 7 [1] = biological target: T1, P2X purinoceptor 7 (Homo sapiens, UniProt Q99572); test: Antagonist activity at P2X7 receptor in human THP1 cells assessed as inhibition of BzATP-induced YO-PRO-1 Iodide uptake measured every 30 secs for 1 hr by fluorescence assay; type: cell-based
T1 sequence (Q99572 whole entry): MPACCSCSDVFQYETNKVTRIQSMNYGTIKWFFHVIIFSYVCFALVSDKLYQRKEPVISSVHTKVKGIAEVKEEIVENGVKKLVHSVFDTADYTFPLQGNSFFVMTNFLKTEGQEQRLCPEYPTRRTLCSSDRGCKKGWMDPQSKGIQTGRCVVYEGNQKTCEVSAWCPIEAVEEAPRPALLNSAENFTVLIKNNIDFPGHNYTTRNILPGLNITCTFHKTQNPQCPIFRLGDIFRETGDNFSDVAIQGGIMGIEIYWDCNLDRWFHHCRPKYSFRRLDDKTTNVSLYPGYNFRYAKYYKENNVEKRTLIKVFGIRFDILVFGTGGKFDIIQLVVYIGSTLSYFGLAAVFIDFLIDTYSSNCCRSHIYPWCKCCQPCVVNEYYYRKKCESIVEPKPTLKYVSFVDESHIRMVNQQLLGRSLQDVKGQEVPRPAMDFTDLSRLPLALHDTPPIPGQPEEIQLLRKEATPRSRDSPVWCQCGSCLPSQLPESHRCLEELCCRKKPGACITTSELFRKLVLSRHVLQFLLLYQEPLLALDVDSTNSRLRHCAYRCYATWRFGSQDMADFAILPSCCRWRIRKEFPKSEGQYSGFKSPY

P2X purinoceptor 7 [2] = biological target: T1, P2X purinoceptor 7; test: Antagonist activity at P2X7 receptor in LPS-stimulated human THP1 cells assessed as inhibition of LPS/BzATP-induced IL-1beta release preincubated for 30 mins followed by BzATP addition measured after 30 mins by ELISA
[3] = biological target: T2, P2X purinoceptor 7 (Homo sapiens) (UniProt Q99572); test: Ratio of IC50 for P2X7 receptor in human THP1 cells assessed as inhibition of BzATP-induced YO-PRO-1 Iodide uptake to IC50 for P2X7 receptor in LPS-stimulated human THP1 cells assessed as inhibition of LPS/BzATP-induced IL-1beta release; type: cell-based
T2 sequence (whole entry): T1 sequence (Q99572 whole entry)

Structure (SMILES)	IC50 (P2X purinoceptor 7 [1])	IC50 (P2X purinoceptor 7 [2])	Ratio IC50 [3]
COc1cccc(N/C(=N/C#N)NCC23CC4CC(CC(C4)C2)C3)c1	58 nM	–	–
N#C/N=C(\NCC12CC3CC(CC(C3)C1)C2)Nc1cccc(F)c1	186 nM	–	–
N#C/N=C(/NCCc1ccccc1)NC12CC3CC(CC(C3)C1)C2	> 10000 nM	–	–
COc1ccc(N/C(=N/C#N)NCC23CC4CC(CC(C4)C2)C3)cc1	562 nM	–	–
N#C/N=C(\NCCC12CC3CC(CC(C3)C1)C2)NCc1ccccc1	3020 nM	–	–
N#C/N=C(\NCC12CC3CC(CC(C3)C1)C2)Nc1ccccc1	100 nM	–	–
N#C/N=C(/NCc1ccccc1F)NCC12CC3CC(CC(C3)C1)C2	501 nM	–	–
N#C/N=C(/NCc1ccccc1)NCC12CC3CC(CC(C3)C1)C2	407 nM	79 nM	5.2
N#C/N=C(\NCC12CC3CC(CC(C3)C1)C2)Nc1cccnc1	214 nM	–	–
N#C/N=C(\NCC12CC3CC(CC(C3)C1)C2)Nc1cccc2ncccc12	18 nM	2 nM	9
N#C/N=C(/NCCc1ccccc1)NCC12CC3CC(CC(C3)C1)C2	4070 nM	–	–
N#C/N=C(\NCC12CC3CC(CC(C3)C1)C2)Nc1ccccc1F	58 nM	–	–
COc1ccccc1N/C(=N/C#N)NCC12CC3CC(CC(C3)C1)C2	51 nM	–	–
N#C/N=C(/Nc1ccccc1)NC12CC3CC(CC(C3)C1)C2	2460 nM	–	–
